{"source": "paper PMC5218480", "about": "(PLoS ONE, 2017)", "tested_on": "MV-4-11 cells", "experiment": "Gene expression microarray analysis (Affymetrix PrimeView) and GSEA", "format": "cell-based, human", "set-up": "RFU PODN (11730768_x_at) / Fold change /veh PODN (11730768_x_at) / RFU LINC00158 (11744669_a_at) / Fold change /veh LINC00158 (11744669_a_at) / RFU DUSP10 (11751237_a_at) / Fold change /veh DUSP10 (11751237_a_at) / RFU ID3 (11757404_x_at) / Fold change /veh ID3 (11757404_x_at) / RFU PLEKHG5 (11737974_s_at) / Fold change /veh PLEKHG5 (11737974_s_at) / RFU LRRC4B (11730491_at) / Fold change /veh LRRC4B (11730491_at) / RFU GIMAP4 (11747438_a_at) / Fold change /veh GIMAP4 (11747438_a_at) / RFU KRT8 (11758183_x_at) / Fold change /veh KRT8 (11758183_x_at) / RFU CNN1 (11734310_a_at) / Fold change /veh CNN1 (11734310_a_at) / RFU VPS37D (11726825_at) / Fold change /veh VPS37D (11726825_at) / RFU C10orf10 (11716522_x_at) / Fold change /veh C10orf10 (11716522_x_at) / RFU KIR2DL2 /// KIR2DL4 /// KIR2DL5A /// KIR2DL5B /// KIR2DS1 /// KIR2DS2 /// KIR2DS3 /// KIR2DS4 /// KIR3DL3 /// KIR3DL3 /// KIR3DS1 (11738374_at) / Fold change /veh KIR2DL2 /// KIR2DL4 /// KIR2DL5A /// KIR2DL5B /// KIR2DS1 /// KIR2DS2 /// KIR2DS3 /// KIR2DS4 /// KIR3DL3 /// KIR3DL3 /// KIR3DS1 (11738374_at) / RFU C1QL1 (11718748_at) / Fold change /veh C1QL1 (11718748_at) / RFU TMPRSS4 (11747572_a_at) / Fold change /veh TMPRSS4 (11747572_a_at) / RFU HAMP (11756126_x_at) / Fold change /veh HAMP (11756126_x_at) / RFU RNFT2 (11725882_a_at) / Fold change /veh RNFT2 (11725882_a_at) / RFU NR4A2 (11747474_a_at) / Fold change /veh NR4A2 (11747474_a_at) / RFU ABCC12 (11746883_a_at) / Fold change /veh ABCC12 (11746883_a_at) / RFU TMEM136 (11760407_x_at) / Fold change /veh TMEM136 (11760407_x_at) / RFU CLDN22 /// WWC2 (11732394_at) / Fold change /veh CLDN22 /// WWC2 (11732394_at) / RFU HLA-DPB1 (11760878_x_at) / Fold change /veh HLA-DPB1 (11760878_x_at) / RFU SPINT1 (11716480_a_at) / Fold change /veh SPINT1 (11716480_a_at) / RFU GAP43 (11754022_s_at) / Fold change /veh GAP43 (11754022_s_at) / RFU A4GNT (11735810_at) / Fold change /veh A4GNT (11735810_at) / RFU PRB3 (11715151_x_at) / Fold change /veh PRB3 (11715151_x_at) / RFU TUBB4B (11761932_at) / Fold change /veh TUBB4B (11761932_at) / RFU CAPN14 (11732068_a_at) / Fold change /veh CAPN14 (11732068_a_at) / RFU TMCC2 (11721928_a_at) / Fold change /veh TMCC2 (11721928_a_at) / RFU IRGQ (11745062_a_at) / Fold change /veh IRGQ (11745062_a_at) / RFU FAM174B (11720279_a_at) / Fold change /veh FAM174B (11720279_a_at) / RFU TMPRSS4 (11748680_a_at) / Fold change /veh TMPRSS4 (11748680_a_at) / RFU FAM212B (11763350_a_at) / Fold change /veh FAM212B (11763350_a_at) / RFU PLEKHG5 (11743358_a_at) / Fold change /veh PLEKHG5 (11743358_a_at) / RFU ZSCAN30 (11745921_a_at) / Fold change /veh ZSCAN30 (11745921_a_at) / RFU CMKLR1 (11741424_a_at) / Fold change /veh CMKLR1 (11741424_a_at) / RFU LOC101060620 /// MAPK8IP1 (11723275_at) / Fold change /veh LOC101060620 /// MAPK8IP1 (11723275_at) / RFU SPTSSB (11747773_x_at) / Fold change /veh SPTSSB (11747773_x_at) / RFU PRSS12 (11739890_at) / Fold change /veh PRSS12 (11739890_at) / RFU BIN1 (11741810_x_at) / Fold change /veh BIN1 (11741810_x_at) / RFU WNT11 (11732464_a_at) / Fold change /veh WNT11 (11732464_a_at) / RFU C10orf10 (11716521_a_at) / Fold change /veh C10orf10 (11716521_a_at) / RFU C5orf56 (11738089_at) / Fold change /veh C5orf56 (11738089_at) / RFU CYB561 (11721691_x_at) / Fold change /veh CYB561 (11721691_x_at) / RFU ANKRD19P (11752326_a_at) / Fold change /veh ANKRD19P (11752326_a_at) / RFU OR2T12 /// OR2T33 /// OR2T8 (11738714_s_at) / Fold change /veh OR2T12 /// OR2T33 /// OR2T8 (11738714_s_at) / RFU VCAN (11748164_a_at) / Fold change /veh VCAN (11748164_a_at) / RFU JSRP1 (11732532_at) / Fold change /veh JSRP1 (11732532_at) / RFU KRTAP10-11 (11738290_x_at) / Fold change /veh KRTAP10-11 (11738290_x_at) / RFU MYO3A (11730013_a_at) / Fold change /veh MYO3A (11730013_a_at) / RFU EBF3 (11725865_a_at) / Fold change /veh EBF3 (11725865_a_at) / RFU CAMK2N1 (11719241_x_at) / Fold change /veh CAMK2N1 (11719241_x_at) / RFU C5orf56 (11738088_a_at) / Fold change /veh C5orf56 (11738088_a_at) / RFU OLFML3 (11715873_a_at) / Fold change /veh OLFML3 (11715873_a_at) / RFU LOC100653217 /// NTM (11731650_a_at) / Fold change /veh LOC100653217 /// NTM (11731650_a_at) / RFU MAPK11 (11762145_a_at) / Fold change /veh MAPK11 (11762145_a_at) / RFU FIZ1 (11724087_x_at) / Fold change /veh FIZ1 (11724087_x_at) / RFU OASL (11726364_x_at) / Fold change /veh OASL (11726364_x_at) / RFU SOX15 (11748057_x_at) / Fold change /veh SOX15 (11748057_x_at) / RFU CD79A (11719716_a_at) / Fold change /veh CD79A (11719716_a_at) / RFU HIST1H1D (11736915_at) / Fold change /veh HIST1H1D (11736915_at) / RFU CASKIN2 (11723855_a_at) / Fold change /veh CASKIN2 (11723855_a_at) / RFU LOC730098 (11760151_x_at) / Fold change /veh LOC730098 (11760151_x_at) / RFU OR4N2 (11742367_at) / Fold change /veh OR4N2 (11742367_at) / RFU PRRT2 (11749266_a_at) / Fold change /veh PRRT2 (11749266_a_at) / RFU SNX32 (11753110_a_at) / Fold change /veh SNX32 (11753110_a_at) / RFU CDHR5 (11726645_a_at) / Fold change /veh CDHR5 (11726645_a_at) / RFU RCAN1 (11760418_a_at) / Fold change /veh RCAN1 (11760418_a_at) / RFU FAM167A (11723789_a_at) / Fold change /veh FAM167A (11723789_a_at) / RFU FAM26E (11764081_at) / Fold change /veh FAM26E (11764081_at) / RFU ISYNA1 (11749810_s_at) / Fold change /veh ISYNA1 (11749810_s_at) / RFU ACY1 (11761880_at) / Fold change /veh ACY1 (11761880_at) / RFU 11764098_at / Fold change /veh 11764098_at / RFU SAMD14 (11745864_x_at) / Fold change /veh SAMD14 (11745864_x_at) / RFU NPB (11741838_a_at) / Fold change /veh NPB (11741838_a_at) / RFU TMPRSS6 (11731388_a_at) / Fold change /veh TMPRSS6 (11731388_a_at) / RFU KRTAP10-2 (11738614_at) / Fold change /veh KRTAP10-2 (11738614_at) / RFU ARHGAP8 /// PRR5-ARHGAP8 (11727945_x_at) / Fold change /veh ARHGAP8 /// PRR5-ARHGAP8 (11727945_x_at) / RFU KRTAP5-7 /// NADSYN1 (11734609_at) / Fold change /veh KRTAP5-7 /// NADSYN1 (11734609_at) / RFU RASL12 (11751679_a_at) / Fold change /veh RASL12 (11751679_a_at) / RFU CDKN2B (11736163_a_at) / Fold change /veh CDKN2B (11736163_a_at) / RFU PRF1 (11729649_at) / Fold change /veh PRF1 (11729649_at) / RFU, ZNF638 /// ZNF638-IT1 / Fold change vs veh, ZNF638 /// ZNF638-IT1 / RFU, PANK3 / Fold change vs veh, PANK3 / RFU, SH3YL1 / Fold change vs veh, SH3YL1 / RFU, ZEB2 / Fold change vs veh, ZEB2 / RFU, NRIP1 / Fold change vs veh, NRIP1 / RFU, PTTG1IP / Fold change vs veh, PTTG1IP / RFU, CAPN2 / Fold change vs veh, CAPN2 / RFU, MED14 / Fold change vs veh, MED14 / RFU, SNORA58 / Fold change vs veh, SNORA58 / RFU, C1orf63 / Fold change vs veh, C1orf63 / RFU, LRRFIP1 / Fold change vs veh, LRRFIP1 / RFU, NDUFAF7 / Fold change vs veh, NDUFAF7 / RFU, SLC12A2 / Fold change vs veh, SLC12A2 / RFU, IBTK / Fold change vs veh, IBTK / RFU, ESF1 / Fold change vs veh, ESF1 / Fold change vs veh, TMEM50B / RFU, TAOK1 / Fold change vs veh, TAOK1 / RFU, ACBD3 / Fold change vs veh, ACBD3 / RFU, TMA16 / Fold change vs veh, TMA16 / RFU, RWDD3 / Fold change vs veh, RWDD3 / RFU, BCAT1 / Fold change vs veh, BCAT1 / RFU, EDEM3 / Fold change vs veh, EDEM3 / RFU, TMEM33 / Fold change vs veh, TMEM33 / RFU, WDR75 / Fold change vs veh, WDR75 / RFU, AHCTF1 / Fold change vs veh, AHCTF1 / RFU, TFRC / Fold change vs veh, TFRC / RFU, ZDHHC17 / Fold change vs veh, ZDHHC17 / RFU, NOM1 / Fold change vs veh, NOM1 / RFU, ARL8B / Fold change vs veh, ARL8B / RFU, ZBTB11 / Fold change vs veh, ZBTB11 / RFU, TAMM41 / Fold change vs veh, TAMM41 / RFU, KIAA1704 /// LOC100996395 / Fold change vs veh, KIAA1704 /// LOC100996395 / RFU, ING1 / Fold change vs veh, ING1 / RFU, TRMT61B / Fold change vs veh, TRMT61B / RFU, FUBP3 / Fold change vs veh, FUBP3 / RFU, TP53 / Fold change vs veh, TP53 / RFU, TNKS2 / Fold change vs veh, TNKS2 / RFU, ZFP14 / Fold change vs veh, ZFP14 / RFU, ACTR2 / Fold change vs veh, ACTR2 / RFU, PPP3R1 / Fold change vs veh, PPP3R1 / RFU, PIK3R1 / Fold change vs veh, PIK3R1 / RFU, HNRNPA1 / Fold change vs veh, HNRNPA1 / RFU, RNF170 / Fold change vs veh, RNF170 / RFU, ZNF28 / Fold change vs veh, ZNF28 / RFU, RNGTT / Fold change vs veh, RNGTT / RFU, OGT / Fold change vs veh, OGT / RFU, BRD1 / Fold change vs veh, BRD1 / RFU, MARS / Fold change vs veh, MARS / RFU, ZNF655 / Fold change vs veh, ZNF655 / RFU, FAHD1 / Fold change vs veh, FAHD1 / RFU, BDP1 / Fold change vs veh, BDP1 / RFU, LRRCC1 / Fold change vs veh, LRRCC1 / RFU, ARID1A / Fold change vs veh, ARID1A / RFU, ZNF146 / Fold change vs veh, ZNF146 / RFU, ZNF330 / Fold change vs veh, ZNF330 / RFU, GPN3 / Fold change vs veh, GPN3 / RFU, C9orf123 / Fold change vs veh, C9orf123 / RFU, N4BP2L2 / Fold change vs veh, N4BP2L2 / RFU, ARFIP1 / Fold change vs veh, ARFIP1 / RFU, FAM179B / Fold change vs veh, FAM179B / RFU, BCL10 / Fold change vs veh, BCL10 / RFU, UHRF1BP1L / Fold change vs veh, UHRF1BP1L / RFU, BET1 / Fold change vs veh, BET1 / RFU, CNOT2 / Fold change vs veh, CNOT2 / RFU, ZNF268 / Fold change vs veh, ZNF268 / Fold change vs veh, ZNF507 / RFU, DGCR2 / Fold change vs veh, DGCR2 / RFU, WDSUB1 / Fold change vs veh, WDSUB1 / Fold change vs veh, HSP90B1 /// MIR3652 / RFU, ADSS / Fold change vs veh, ADSS / RFU, GK / Fold change vs veh, GK / RFU, ZNF148 / Fold change vs veh, ZNF148 / RFU, TAF9 / Fold change vs veh, TAF9 / RFU, SLC1A5 / Fold change vs veh, SLC1A5 / RFU, SLMO2 / Fold change vs veh, SLMO2 / RFU, ABCC4 / Fold change vs veh, ABCC4 / RFU, LOC101060439 /// RAP1B / Fold change vs veh, LOC101060439 /// RAP1B / RFU, RFX7 / Fold change vs veh, RFX7 / RFU, GTPBP10 / Fold change vs veh, GTPBP10 / RFU, CNEP1R1 / Fold change vs veh, CNEP1R1 / RFU, BIVM-ERCC5 /// ERCC5 / Fold change vs veh, BIVM-ERCC5 /// ERCC5 / RFU, ILF3 / Fold change vs veh, ILF3 / RFU 11762660_at / Fold change /veh 11762660_at / RFU VCAN (11757783_s_at) / Fold change /veh VCAN (11757783_s_at) / RFU DDX43 (11728927_at) / Fold change /veh DDX43 (11728927_at) / RFU KRT8 (11758188_x_at) / Fold change /veh KRT8 (11758188_x_at) / RFU NKD1 (11759106_at) / Fold change /veh NKD1 (11759106_at) / RFU SRD5A1 (11742802_a_at) / Fold change /veh SRD5A1 (11742802_a_at) / RFU TPSAB1 /// TPSB2 (11721975_s_at) / Fold change /veh TPSAB1 /// TPSB2 (11721975_s_at) / RFU GSTM3 (11746129_a_at) / Fold change /veh GSTM3 (11746129_a_at) / RFU IL23R (11737362_x_at) / Fold change /veh IL23R (11737362_x_at) / RFU TMEM51 (11727254_a_at) / Fold change /veh TMEM51 (11727254_a_at) / RFU PIWIL2 (11732686_x_at) / Fold change /veh PIWIL2 (11732686_x_at) / RFU ORM1 (11744905_x_at) / Fold change /veh ORM1 (11744905_x_at) / RFU CCDC152 (11743942_at) / Fold change /veh CCDC152 (11743942_at) / RFU ECM1 (11717891_a_at) / Fold change /veh ECM1 (11717891_a_at) / RFU IL23R (11748794_a_at) / Fold change /veh IL23R (11748794_a_at) / RFU TNFAIP8L3 (11732012_x_at) / Fold change /veh TNFAIP8L3 (11732012_x_at) / RFU MBOAT4 (11741988_at) / Fold change /veh MBOAT4 (11741988_at) / RFU 11764193_at / Fold change /veh 11764193_at / RFU TMEM53 (11763286_at) / Fold change /veh TMEM53 (11763286_at) / RFU MAGEB2 (11727129_at) / Fold change /veh MAGEB2 (11727129_at) / RFU TMEM200A (11744735_a_at) / Fold change /veh TMEM200A (11744735_a_at) / RFU CCDC152 (11751479_a_at) / Fold change /veh CCDC152 (11751479_a_at) / RFU FAM211A (11726209_a_at) / Fold change /veh FAM211A (11726209_a_at) / RFU RGS16 (11746705_a_at) / Fold change /veh RGS16 (11746705_a_at) / RFU VCAN (11755009_s_at) / Fold change /veh VCAN (11755009_s_at) / RFU RHOB (11743442_s_at) / Fold change /veh RHOB (11743442_s_at) / RFU RGS16 (11720943_a_at) / Fold change /veh RGS16 (11720943_a_at) / RFU RGS16 (11720944_at) / Fold change /veh RGS16 (11720944_at) / RFU, VPS4B / Fold change vs veh, VPS4B / RFU, CREB1 / Fold change vs veh, CREB1 / RFU, DNAJC13 / Fold change vs veh, DNAJC13 / RFU, GNAQ / Fold change vs veh, GNAQ / RFU, CDK5R1 / Fold change vs veh, CDK5R1 / RFU, ZRANB3 / Fold change vs veh, ZRANB3 / RFU, CUL4A / Fold change vs veh, CUL4A / RFU, CCNY / Fold change vs veh, CCNY / RFU, UFL1 / Fold change vs veh, UFL1 / RFU, COG3 / Fold change vs veh, COG3 / RFU, DIAPH2 / Fold change vs veh, DIAPH2 / RFU, SKA2 / Fold change vs veh, SKA2 / RFU, AFF3 / Fold change vs veh, AFF3 / RFU, LMF1 / Fold change vs veh, LMF1 / RFU, IPO11 / Fold change vs veh, IPO11 / RFU, DFFB / Fold change vs veh, DFFB / RFU, FOXP1 / Fold change vs veh, FOXP1 / RFU, CARD8 / Fold change vs veh, CARD8 / RFU, STRN3 / Fold change vs veh, STRN3 / RFU, ADK / Fold change vs veh, ADK / RFU, RASSF2 / Fold change vs veh, RASSF2 / RFU, WIPF1 / Fold change vs veh, WIPF1 / RFU, LARP1B / Fold change vs veh, LARP1B / RFU, RASA1 / Fold change vs veh, RASA1 / RFU, RB1 / Fold change vs veh, RB1 / RFU, PPFIA1 / Fold change vs veh, PPFIA1 / RFU, MAT2A / Fold change vs veh, MAT2A / RFU, CCT5 / Fold change vs veh, CCT5 / RFU, WDR92 / Fold change vs veh, WDR92 / RFU, CUX1 / Fold change vs veh, CUX1 / RFU, TTC7A / Fold change vs veh, TTC7A / RFU, TMEM135 / Fold change vs veh, TMEM135 / RFU, DEPTOR / Fold change vs veh, DEPTOR / RFU, CPM / Fold change vs veh, CPM / RFU, DNAJB6 / Fold change vs veh, DNAJB6 / RFU, CACNA2D3 / Fold change vs veh, CACNA2D3 / RFU, DTX4 / Fold change vs veh, DTX4 / RFU, TFCP2 / Fold change vs veh, TFCP2 / RFU, GMCL1 /// GMCL1P1 / Fold change vs veh, GMCL1 /// GMCL1P1 / RFU, AEBP2 / Fold change vs veh, AEBP2 / RFU, SNHG1 /// SNORD22 /// SNORD25 /// SNORD26 /// SNORD27 /// SNORD28 /// SNORD29 /// SNORD31 / Fold change vs veh, SNHG1 /// SNORD22 /// SNORD25 /// SNORD26 /// SNORD27 /// SNORD28 /// SNORD29 /// SNORD31 / Fold change (Aza/veh), C12orf56 (ProbeSet 11735607_a_at) / Fold change (ACY-1035/veh), C12orf56 (ProbeSet 11735607_a_at) / Fold change (Aza/veh), FGFR1OP (ProbeSet 11751329_s_at) / Fold change (ACY-1035/veh), FGFR1OP (ProbeSet 11751329_s_at) / Fold change (Aza/veh), VPS36 (ProbeSet 11739960_a_at) / Fold change (ACY-1035/veh), VPS36 (ProbeSet 11739960_a_at) / RFU SYPL1 (11715823_x_at) / Fold change /veh SYPL1 (11715823_x_at) / RFU IGFBP7 (11715501_s_at) / Fold change /veh IGFBP7 (11715501_s_at) / RFU REEP3 (11722064_at) / Fold change /veh REEP3 (11722064_at) / RFU IGLL1 (11728026_x_at) / Fold change /veh IGLL1 (11728026_x_at): dose or concentration left out as unconfirmed", "settings": "ProbeSet 11743882_a_at; LIST D"}
{"smiles": "Nc1ncn([C@@H]2O[C@H](CO)[C@@H](O)[C@H]2O)c(=O)n1", "note": "[azacitidine]", "values": [{"measurement": "RFU, STRN3", "value": 92.89, "unit": "RFU"}]}
